In ChEMBL document CHEMBL6182935, “Discovery of a Novel Silybin Derivative for the Treatment of Metabolic Dysfunction-Associated Steatohepatitis” (J Med Chem, 2025):
Activity calls are given as the source filed them. The calls are words filed in the database; no cut-off is given here.

Key:
[1] = Apparent clearance during terminal phase in overnight-fasted male Sprague-Dawley rat at 150 mg/kg, po measured up to 12 hrs by HPLC analysis; type: ADME, organism-based; settings: in vivo, read-out: CLz/F (converted)
Hepatocyte [2] = experiment: Anti-inflammatory activity in CCl4-stimulated mouse primary hepatocytes assessed as reduction in IL-6 mRNA level at 1 uM; type: functional, cell-based
L02 [3] = experiment: Anti-MASH activity in palmitate/oleate-stimulated human LO2 cells assessed as reduction in lipid accumulation at 10 to 40 uM incubated for 24 hrs by Oil Red O staining assay; type: functional, cell-based; settings: dose 10-40 µM
Mus musculus [4] = experiment: Anti-MASH activity in HFD-fed CCl4-treated male C57BL/6 mouse assessed as reversal of light color of liver at 150 mg/kg, po qd treated for 4 weeks; type: functional, organism-based
[5] = AUC (0 to infinity) in overnight-fasted male Sprague-Dawley rat at 150 mg/kg, po measured up to 12 hrs by HPLC analysis; type: ADME, organism-based; settings: in vivo
Hepatocyte [6] = experiment: Anti-inflammatory activity in CCl4-stimulated mouse primary hepatocytes assessed as reduction in TNF-alpha mRNA level at 1 uM; type: functional, cell-based
Mus musculus [7] = experiment: Anti-MASH activity in HFD-fed CCl4-treated male C57BL/6 mouse assessed as decrease in liver MDA level at 150 mg/kg, po qd treated for 4 weeks; type: functional, organism-based
Mus musculus [8] = experiment: Anti-MASH activity in HFD-fed CCl4-treated male C57BL/6 mouse assessed as reduction in liver TNF-alpha level at 150 mg/kg, po qd treated for 4 weeks by ELISA; type: functional, organism-based
[9] = Terminal half life in overnight-fasted male Sprague-Dawley rat at 150 mg/kg, po measured up to 12 hrs by HPLC analysis; type: ADME, organism-based; settings: in vivo, read-out: beta t1/2 (converted)
[10] = Antioxidant activity assessed as inhibition of DPPH free radical scavenging activity incubated for 30 mins under dark condition; type: functional
Hepatocyte [11] = experiment: Anti-MASH activity in CCl4-stimulated mouse primary hepatocytes assessed as reduction in ROS level at 2.5 to 10 uM by DCFH-DA staining assay; type: functional, cell-based; settings: dose 2.5-10 µM
Rattus norvegicus [12] = experiment: (§1) Hepatoprotective activity in male Sprague-Dawley rat model of CCl4-induced ALI assessed as reduction in MDA level at 100 mg/kg, IG qd pretreated with compound for 7 days followed by CCl4 administration after 2 hrs post-compound treatment measured after 16 hrs post-CCl4 injection; type: functional, organism-based; settings: time 186.0 hrs
Mus musculus [13] = experiment: Anti-MASH activity in HFD-fed CCl4-treated male C57BL/6 mouse assessed as reduction in hepatic cholesterol level at 150 mg/kg, po qd treated for 4 weeks by ELISA; type: functional, organism-based
Hepatocyte [14] = experiment: Anti-MASH activity in palmitate/oleate-stimulated mouse primary hepatocytes assessed as reduction in FASN mRNA level by q-PCR analysis; type: functional, cell-based
L02 [15] = experiment: Anti-MASH activity in palmitate/oleate-stimulated human LO2 cells assessed as reduction in triglyceride level incubated for 24 hrs; type: functional, cell-based; settings: dose 10-40 µM
[16] = Acute toxicity in male KM mouse assessed as animal suvival at 2 g/kg, po administered as single dose measured after 2 weeks; type: organism-based; settings: in vivo, 2000 mg/kg, 336 h
LX-2 = experiment: Anti-MASH activity in TGF-beta-activated-human LX2 cells assessed as reduction in fibronectin level incubated for 48 hrs by Western blot analysis; type: functional, cell-based; settings: dose 10-40 µM
Mus musculus [17] = experiment: Anti-MASH activity in HFD-fed CCl4-treated male C57BL/6 mouse assessed as reduction in alpha-SMA in liver at 150 mg/kg, po qd treated for 4 weeks by IHC analysis; type: functional, organism-based
[18] = Toxicity in male Sprague-Dawley rat model of CCl4-induced ALI assessed as body weight change at 100 mg/kg, IG qd pretreated with compound for 7 days followed by CCl4 administration after 2 hrs post-compound treatment measured after 16 hrs post-CCl4 injection; type: organism-based; settings: in vivo, po, 186 h
L02 [19] = experiment: Anti-inflammatory activity in CCl4-stimulated human LO2 cells assessed as reduction in IL-6 mRNA level at 1 uM; type: functional, cell-based
Mus musculus [20] = experiment: Anti-MASH activity in HFD-fed CCl4-treated male C57BL/6 mouse assessed as reversal of volume of liver at 150 mg/kg, po qd treated for 4 weeks; type: functional, organism-based
Rattus norvegicus [21] = experiment: as §1, with “vacuoles” for “MDA level”, “injection by H and E staining based analysis” for “injection”; type: functional, organism-based; settings: time 186.0 hrs
L02 [22] = experiment: Anti-MASH activity in palmitate/oleate-stimulated human LO2 cells assessed as reduction in FASN mRNA level at 10 to 40 uM incubated for 24 hrs by q-PCR analysis; type: functional, cell-based; settings: dose 10-40 µM
Mus musculus [23] = experiment: Anti-MASH activity in HFD-fed CCl4-treated male C57BL/6 mouse assessed as reduction in inflammation in liver at 150 mg/kg, po qd treated for 4 weeks by H and E/Oil red O staining based analysis; type: functional, organism-based
[24] = Oral bioavailability in overnight-fasted male Sprague-Dawley rat assessed as fold increase at 150 mg/kg measured up to 12 hrs by HPLC analysis relative to silybin; type: ADME, organism-based; settings: in vivo
Rattus norvegicus [25] = experiment: Hepatoprotective activity in male Sprague-Dawley rat model of CCl4-induced ALI assessed as reduction in dullness of liver margin at 100 mg/kg, IG qd pretreated with compound for 7 days followed by CCl4 administration after 2 hrs post-compound treatment measured after 16 hrs post-CCl4 injection; type: functional, organism-based; settings: time 186.0 hrs
Mus musculus [26] = experiment: Anti-MASH activity in HFD-fed CCl4-treated male C57BL/6 mouse assessed as reduction in serum cholesterol level at 150 mg/kg, po qd treated for 4 weeks; type: functional, organism-based
Mus musculus [27] = experiment: Anti-MASH activity in HFD-fed CCl4-treated male C57BL/6 mouse assessed as reduction in hepatocyte ballooning in liver at 150 mg/kg, po qd treated for 4 weeks by H and E/Oil red O staining based analysis; type: functional, organism-based
Mus musculus [28] = experiment: Anti-MASH activity in HFD-fed CCl4-treated male C57BL/6 mouse assessed as reduction in hepatic triglyceride level at 150 mg/kg, po qd treated for 4 weeks by ELISA; type: functional, organism-based
Hepatocyte [29] = experiment: Anti-MASH activity in palmitate/oleate-stimulated mouse primary hepatocytes assessed as reduction in ACACA mRNA level by q-PCR analysis; type: functional, cell-based
Rattus norvegicus [30] = experiment: Hepatoprotective activity in male Sprague-Dawley rat model of CCl4-induced ALI assessed as reduction in […] somatic indices at 100 mg/kg, IG qd pretreated with compound for 7 days followed by CCl4 administration after 2 hrs post-compound treatment measured after 16 hrs post-CCl4 injection; type: functional, organism-based; settings: time 186.0 hrs
Rattus norvegicus [31] = experiment: Hepatoprotective activity in male Sprague-Dawley rat model of CCl4-induced ALI assessed as reduction in white granular fat in liver at 100 mg/kg, IG qd pretreated with compound for 7 days followed by CCl4 administration after 2 hrs post-compound treatment measured after 16 hrs post-CCl4 injection; type: functional, organism-based; settings: time 186.0 hrs
Mus musculus [32] = experiment: Anti-MASH activity in HFD-fed CCl4-treated male C57BL/6 mouse assessed as restoration of serum ALT level at 150 mg/kg, po qd treated for 4 weeks; type: functional, organism-based

For `COc1cc([C@@H]2Oc3cc([C@H]4Oc5cc(O)cc(O)c5C(=O)[C@@H]4O)ccc3OC2CS)ccc1O` (stereo partly drawn), the CL/F [1] was 51.3 mL/min, the Activity (Hepatocyte [2]) was “Active” and the Activity (L02 [3]) was “Active”. The Activity (Mus musculus [4]) was “Active; Activity Better Than Silybin”, the AUC(0-inf) [5] was 11600 ng·h/mL and the Activity (Hepatocyte [6]) was “Active”. The Activity (Mus musculus [7]) was “Active; Compound Was More Significant Than Silybin”, the Activity (Mus musculus [8]) was “Active” and the half-life [9] was 1.55 h. The IC50 [10] was 33.4 µM, the Activity (Hepatocyte [11]) was “Active” and the Activity (Rattus norvegicus [12]) was “Active; Exhibited Better Efficacy Than Silybin”. The Activity (Mus musculus [13]) was “Active; Activity Was More Significant Than Silybin”, the Activity (Hepatocyte [14]) was “Active” and the Activity (L02 [15]) was “Dose-dependent-effect”. For the same molecule, the Activity [16] was “Non-toxic”, the Activity (LX-2) was “Dose-dependent-effect” and the Activity (Mus musculus [17]) was “Active”. For the same molecule, the Activity [18] was “Non-toxic”, the Activity (L02 [19]) was “Active” and the Activity (Mus musculus [20]) was “Active; Activity Better Than Silybin”. The Activity (Rattus norvegicus [21]) was “Active”, the Activity (L02 [22]) was “Active” and the Activity (Mus musculus [23]) was “Active; Activity Was Better Than Silybin”. The “fold change (FC)” value [24] was > 20, the Activity (Rattus norvegicus [25]) was “Active” and the Activity (Mus musculus [26]) was “Active”. For the same molecule, the Activity (Mus musculus [27]) was “Active; Activity Was Better Than Silybin”, the Activity (Mus musculus [28]) was “Active; Activity Was More Significant Than Silybin” and the Activity (Hepatocyte [29]) was “Active”. For the same molecule, the Activity (Rattus norvegicus [30]) was “Active”, the Activity (Rattus norvegicus [31]) was “Active” and the Activity (Mus musculus [32]) was “Active; Activity Was Better Than Silybin”.
